Consider 14 molecules from patent publication US9670250B2, “Alpha-helical peptidomimetic inhibitors and methods using same” (The Trustees of the University of Pennsylvania, priority 2012, dated 2017).

Starred links: 1 amine or outer side, 2 acyl side, 3 side chain; linkers in the order of their positions; H or OH if unused. Positions of bridges follow the written chain, without caps; N, C: chain ends. Residues, ends and D or L forms follow the SMILES beside them. mXylylene = c1cc(C[*:1])cc(C[*:2])c1

What all share (type): biochemical
One assay addresses Cathepsin S (Homo sapiens, UniProt P25774). Kind of assay: in vitro fluorescence-based protease inhibition assay, cathepsin S. The source says: (§1) Thus, the present invention includes a series of potent and highly specific α-helical inhibitors for papain family cysteine proteases. […] These short α-helical peptidomimetic inhibitors are modeled after the natural pro-domain sequence but contain a cysteine substitution at specific residues in i,i+4 positions, as shown in FIG. 2B. These cysteine residues are used for stabilization of the helix utilizing an appropriate linker (Muppidi, et al., 2011, Chem Commun (Camb) 47:9396-9398). After synthesis, each inhibitor was tested against its respective protease using an in vitro fluorescence-based assay. For each enzyme, at least one inhibitor was identified that is relatively potent and highly specific for its individual protease. These inhibitors can be modified or otherwise optimized to attain higher potency and selectivity through identification of key interactions between the inhibitor and the active site amino acid residues. Such optimization involves visual examination of the protease crystal structure, and substitution with either non-natural or natural amino acids to exploit possible crucial non-covalent protein ligand interactions, such as hydrogen bond, electrostatic, hydrophobic, and Van der Waals interactions.

The target of the next assay is T1, Calpain (Calpain-1) (Homo sapiens, UniProt P07384).
T1 sequence (P07384 1-714): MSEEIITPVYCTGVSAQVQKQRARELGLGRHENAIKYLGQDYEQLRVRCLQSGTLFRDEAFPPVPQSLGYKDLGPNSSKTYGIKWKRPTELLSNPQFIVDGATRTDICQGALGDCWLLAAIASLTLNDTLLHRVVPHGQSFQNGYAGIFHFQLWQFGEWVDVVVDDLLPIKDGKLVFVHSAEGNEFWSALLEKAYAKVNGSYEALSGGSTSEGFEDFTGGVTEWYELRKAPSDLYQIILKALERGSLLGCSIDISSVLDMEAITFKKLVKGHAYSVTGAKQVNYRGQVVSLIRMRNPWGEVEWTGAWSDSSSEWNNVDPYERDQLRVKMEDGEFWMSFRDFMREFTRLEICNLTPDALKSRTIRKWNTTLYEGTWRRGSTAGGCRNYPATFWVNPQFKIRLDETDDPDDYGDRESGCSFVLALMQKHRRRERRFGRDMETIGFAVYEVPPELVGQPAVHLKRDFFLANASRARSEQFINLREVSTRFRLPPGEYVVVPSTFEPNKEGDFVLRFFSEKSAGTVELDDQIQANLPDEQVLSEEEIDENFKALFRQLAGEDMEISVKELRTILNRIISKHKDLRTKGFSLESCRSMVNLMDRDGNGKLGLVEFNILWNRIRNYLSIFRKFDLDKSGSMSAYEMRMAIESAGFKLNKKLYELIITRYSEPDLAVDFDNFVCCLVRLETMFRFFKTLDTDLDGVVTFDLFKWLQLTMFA
T1 sequence (P04632 1-268 partner): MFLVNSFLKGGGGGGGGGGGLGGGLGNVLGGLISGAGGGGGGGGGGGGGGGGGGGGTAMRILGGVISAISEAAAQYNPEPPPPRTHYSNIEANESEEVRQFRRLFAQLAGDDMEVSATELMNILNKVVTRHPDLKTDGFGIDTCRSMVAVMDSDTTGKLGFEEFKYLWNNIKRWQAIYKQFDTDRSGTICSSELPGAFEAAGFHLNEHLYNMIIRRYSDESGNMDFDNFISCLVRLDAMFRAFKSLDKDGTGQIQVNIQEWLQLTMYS
The experiment in a line: in vitro fluorescence-based protease inhibition assay, calpain.
Excerpt: as §1

For another assay, the target named is Cathepsin L (Homo sapiens, UniProt P07711). The experiment in a line: in vitro fluorescence-based protease inhibition assay, cathepsin L.
Excerpt: as §1

Another assay has as its target T2, Cathepsin K (Homo sapiens, UniProt P43235).
T2 sequence (P43235 115-329): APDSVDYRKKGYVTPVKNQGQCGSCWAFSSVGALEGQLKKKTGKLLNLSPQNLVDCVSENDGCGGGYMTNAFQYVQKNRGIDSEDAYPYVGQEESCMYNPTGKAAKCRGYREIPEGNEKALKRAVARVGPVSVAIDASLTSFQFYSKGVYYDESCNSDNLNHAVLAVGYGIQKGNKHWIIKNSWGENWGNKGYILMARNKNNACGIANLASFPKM
The experiment in a line: in vitro fluorescence-based protease inhibition assay, cathepsin K.
Excerpt: as §1

Setting [1] is: Table 2, cathepsin S inhibitors.
Where [2] appears, read: Table 3, cathepsin K inhibitors.

Chain of Cathepsin S (P25774 115-331, species assumed): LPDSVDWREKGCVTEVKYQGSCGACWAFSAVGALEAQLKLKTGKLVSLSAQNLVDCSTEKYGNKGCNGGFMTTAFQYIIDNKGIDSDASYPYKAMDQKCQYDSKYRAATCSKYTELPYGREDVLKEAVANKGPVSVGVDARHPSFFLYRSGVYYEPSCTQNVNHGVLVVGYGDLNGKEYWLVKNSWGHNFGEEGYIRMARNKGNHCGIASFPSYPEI
Chain of Cathepsin L (P07711 114-333, species assumed): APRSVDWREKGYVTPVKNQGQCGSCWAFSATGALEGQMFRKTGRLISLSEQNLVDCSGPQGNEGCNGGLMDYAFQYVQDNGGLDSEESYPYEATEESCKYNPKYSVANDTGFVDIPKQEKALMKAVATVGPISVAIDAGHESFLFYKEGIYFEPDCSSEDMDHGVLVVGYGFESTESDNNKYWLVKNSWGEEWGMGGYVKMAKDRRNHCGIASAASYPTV

In the case of `CSCC[C@H](NC(=O)[C@H](CC(C)C)NC(=O)[C@H](CO)NC(=O)[C@H](CC(N)=O)NC(=O)[C@H](CCSC)NC(=O)[C@@H](NC(=O)[C@H](CCC(=O)O)NC(=O)[C@H](CCC(=O)O)NC(=O)[C@H](CO)NC(=O)[C@@H](N)[C@@H](C)O)C(C)C)C(=O)N[C@@H](CO)C(=O)N[C@@H](CO)C(=O)O` [SEQ ID NO:14, TSEEVMNSLMSS, reference compound] (H-TSEEVMNSLMSS-OH), on Cathepsin S, the “cathepsin S inhibitory activity, in words” value was “did not demonstrate any intrinsic inhibitory activity”.

As a reminder, the Ki is a measure of affinity in units of concentration, obtained from inhibition or displacement. Low readings indicate higher affinity, high ones lower affinity. For `CSCC[C@@H]1NC(=O)[C@H](CC(C)C)NC(=O)[C@H](CO)NC(=O)[C@@H](NC(=O)[C@@H](NC(=O)[C@H](Cc2c[nH]c3ccccc23)NC(=O)[C@H](CCC(=O)O)NC(=O)[C@H](CO)NC(=O)[C@@H](N)[C@@H](C)O)C(C)C)CSCc2cccc(c2)CSC[C@@H](C(=O)N[C@@H](CO)C(=O)O)NC1=O` [compound 20] (H-TSEWVCSLMCS-OH; linker 6-10 via mXylylene; N-terminus and C-terminus assumed), the Ki at Calpain (Calpain-1) (setting [1]) is over 100 µM; at Cathepsin L (setting [1]), 57.1 ± 1.24 µM; at Cathepsin K (setting [1]), over 100 µM.

For `CSCC[C@H](NC(=O)[C@H](CCCCN)NC(=O)[C@@H]1CSCc2cccc(c2)CSC[C@H](NC(=O)[C@@H](N)CO)C(=O)N[C@@H](CCC(=O)O)C(=O)N[C@@H](CO)C(=O)N[C@@H](C(C)C)C(=O)N1)C(=O)N[C@H](C(=O)NCC(=O)N[C@@H](CC(C)C)C(=O)O)[C@@H](C)O` [compound 37] (H-SCESVCKMTGL-OH; linker 2-6 via mXylylene; N-terminus and C-terminus assumed), the inhibition constant (Ki) at Calpain (Calpain-1) (setting [2]), at Cathepsin L (setting [2]) and on Cathepsin K (setting [2]) was over 100 µM each time.

In the case of `CC[C@H](C)[C@H](NC(=O)[C@@H](NC(=O)[C@@H](NC(=O)[C@H](CCC(=O)O)NC(=O)[C@H](CCCNC(=N)N)NC(=O)[C@H](CCCCN)NC(=O)CNC(=O)[C@@H](N)CC(C)C)C(C)C)[C@@H](C)O)C(=O)N1CCC[C@H]1C(=O)N1CCC[C@H]1C(=O)N[C@@H](CCCCN)C(=O)N[C@@H](Cc1ccc(O)cc1)C(=O)N[C@H]1CSCc2cccc(c2)CSC[C@@H](C(=O)O)NC(=O)[C@H](CC(C)C)NC(=O)[C@H](CC(C)C)NC(=O)[C@H](CCC(=O)O)NC1=O` [compound 67] (H-LGKREVTIPPKYCELLC-OH; linker 13-17 via mXylylene; N-terminus and C-terminus assumed), the Ki was 3.6 ± 1.7 µM on Calpain (Calpain-1) (Table 4, calpain inhibitors); over 100 µM at Cathepsin L (Table 4, calpain inhibitors); over 100 µM on Cathepsin K (Table 4, calpain inhibitors).

On to `CC[C@H](C)[C@H](NC(=O)[C@@H](NC(=O)[C@@H](NC(=O)[C@@H](N)CCC(=O)O)C(C)C)[C@@H](C)O)C(=O)N1CCC[C@H]1C(=O)N1CCC[C@H]1C(=O)N[C@@H](CCCCN)C(=O)N[C@@H](Cc1ccc(O)cc1)C(=O)N[C@H]1CSCc2cccc(c2)CSC[C@@H](C(=O)O)NC(=O)[C@H](CC(C)C)NC(=O)[C@H](CC(C)C)NC(=O)[C@H](CCC(=O)O)NC1=O` [compound 69] (H-EVTIPPKYCELLC-OH; linker 9-13 via mXylylene; N-terminus and C-terminus assumed), for which the Ki was 5.3 ± 1.9 µM on Calpain (Calpain-1) (Table 4, calpain inhibitors) and over 100 µM on Cathepsin K (Table 4, calpain inhibitors).

As for `CC(C)C[C@@H]1NC(=O)[C@H](CC(C)C)NC(=O)[C@H](CCC(=O)O)NC(=O)[C@@H](NC(=O)[C@H](Cc2ccc(O)cc2)NC(=O)[C@H](CCCCN)NC(=O)[C@@H]2CCCN2C(=O)[C@@H]2CCCN2C(=O)[C@H](C)N)CSCc2cccc(c2)CSC[C@@H](C(=O)O)NC1=O` [compound 72] (H-APPKYCELLC-OH; linker 6-10 via mXylylene; N-terminus and C-terminus assumed), the Ki at Calpain (Calpain-1) (Table 4, calpain inhibitors) was found to be 65.6 ± 20.5 µM; on Cathepsin L (Table 4, calpain inhibitors), 12.5 ± 1.2 µM.

Regarding `CC(C)C[C@@H]1NC(=O)[C@H](CC(C)C)NC(=O)[C@H](CCC(=O)O)NC(=O)[C@@H](NC(=O)[C@H](Cc2ccc(O)cc2)NC(=O)[C@H](CCCCN)NC(=O)[C@@H]2CCCN2C(=O)[C@@H]2CCCN2C(=O)[C@@H](N)CC(C)C)CSCc2cccc(c2)CSC[C@@H](C(=O)O)NC1=O` [compound 74] (H-LPPKYCELLC-OH; linker 6-10 via mXylylene; N-terminus and C-terminus assumed), the Ki at Calpain (Calpain-1) (Table 4, calpain inhibitors) is 11 ± 3.6 µM; on Cathepsin K (Table 4, calpain inhibitors) it was over 100 µM.

For `CC[C@H](C)[C@H](N)C(=O)N1CCC[C@H]1C(=O)N1CCC[C@H]1C(=O)N[C@@H](CCCNC(=N)N)C(=O)N[C@@H](Cc1ccc(O)cc1)C(=O)N[C@H]1CSCc2cccc(c2)CSC[C@@H](C(=O)O)NC(=O)[C@H](CC(C)C)NC(=O)[C@H](CC(C)C)NC(=O)[C@H](CCC(=O)O)NC1=O` [compound 80] (H-IPPRYCELLC-OH; linker 6-10 via mXylylene; N-terminus and C-terminus assumed), the Ki is 5.3 ± 2 µM at Calpain (Calpain-1) (Table 4, calpain inhibitors) and over 100 µM on Cathepsin K (Table 4, calpain inhibitors).

Turning to `CC[C@H](C)[C@H](N)C(=O)N1CCC[C@H]1C(=O)N1CCC[C@H]1C(=O)N[C@@H](CCCCN)C(=O)N[C@@H](Cc1ccc(O)cc1)C(=O)N[C@H]1CSCc2cccc(c2)CSC[C@@H](C(=O)O)NC(=O)[C@H](CC(C)C)NC(=O)[C@H](CC(C)C)NC(=O)[C@H](C)NC1=O` [compound 84] (H-IPPKYCALLC-OH; linker 6-10 via mXylylene; N-terminus and C-terminus assumed), the Ki on Calpain (Calpain-1) (Table 4, calpain inhibitors) came out at 28.9 ± 9.1 µM; on Cathepsin L (Table 4, calpain inhibitors) it was 12.5 ± 1.1 µM.

For the molecule `CC[C@H](C)[C@H](N)C(=O)N1CCC[C@H]1C(=O)N1CCC[C@H]1C(=O)N[C@@H](CCCCN)C(=O)N[C@@H](Cc1ccc(O)cc1)C(=O)N[C@H]1CSCc2cccc(c2)CSC[C@@H](C(=O)O)NC(=O)[C@H](CC(C)C)NC(=O)[C@H](CCC(N)=O)NC(=O)[C@H](CCC(=O)O)NC1=O` [compound 85] (H-IPPKYCEQLC-OH; linker 6-10 via mXylylene; N-terminus and C-terminus assumed), the Ki on Calpain (Calpain-1) (Table 4, calpain inhibitors) is 11 ± 3.6 µM; on Cathepsin K (Table 4, calpain inhibitors), over 100 µM.

With SECFRQCMNGF [SEQ ID NO:2], the “cathepsin L inhibitory activity, in words” value in the assay with Cathepsin L is given as “low activity”.

For “SEEFRQVMNGF [SEQ ID NO:1, reference compound]”, the “cathepsin L inhibitory activity, in words” value with Cathepsin L is “no inhibitory activity”.

For TSEEVCSLMCS [SEQ ID NO:16], the “potency on cathepsin L over cathepsin S, in words” value with Cathepsin L is “much more potent inhibitor of cathepsin L over cathepsin S”. In addition, the “cathepsin S inhibitory activity, in words” value with Cathepsin S was “increased inhibition”. In addition, the “effect on cathepsin K (inhibition or activation), in words” value with Cathepsin K is on record as “did not inhibit”.

For TWEWVCSLMCS [SEQ ID NO:23], the “specificity for cathepsin S over cathepsin L” value with Cathepsin S is “twice as specific”.
